The source of these data is ChEMBL document CHEMBL4616633, “Citral Inhibits the Inflammatory Response and Hyperalgesia in Mice: The Role of TLR4, TLR2/Dectin-1, and CB2 Cannabinoid Receptor/ATP-Sensitive K+ Channel Pathways” (J Nat Prod, 2020).

Molecules are shown by their SMILES. The source made the active and inactive calls. The calls are words filed in the database; no cut-off is given here.

The subject of series [1] is Mus musculus. Description: Inhibition of carrageenan-induced paw edema in Swiss mouse at 1 mg/kg, ip pretreated for 30 mins followed by carrageenan-stimulation and measured after 6 hrs. It is filed as functional, organism-based. Background: In the carrageenan paw model, swelling and tenderness develop within hours.
The subject of series [2] is Mus musculus. Description: Inhibition of carrageenan-induced thermal allodynia in Swiss mouse at 1 mg/kg, ip pretreated for 30 mins followed by carrageenan-stimulation and measured after 6 hrs. It is filed as functional, organism-based.
The nature of series [3]: Psychoactive effect in Swiss mouse assessed as catalepsy effect at 1.5 mg/kg, ip and measured for 6 hrs. The settings on record: in vivo. The format is ADME, organism-based.
Series [4] can be described thus: Psychoactive effect in Swiss mouse assessed as hypothermic effects at 1.5 mg/kg, ip and measured for 6 hrs by thermometric method. The format is ADME, organism-based. Particulars: in vivo.
Series [5] can be described thus: Psychoactive effect in Swiss mouse assessed as antinociceptive effect by measuring paw withdrawal latencies at 1.5 mg/kg, ip and measured for 6 hrs. The format is ADME, organism-based. Particulars: in vivo.
For series [6], the system named is Mus musculus. The experiment in a line: Inhibition of carrageenan-induced paw edema in Swiss mouse at 1.5 mg/kg, ip pretreated for 30 mins followed by carrageenan-stimulation and measured after 6 hrs. The format is functional, organism-based.
Series [7] is described as follows: Psychoactive effect in Swiss mouse assessed as reduction in locomotor activity by measuring change in distance travelled at 1.5 mg/kg, ip and measured for 6 hrs. The settings on record: in vivo. It is filed as ADME, organism-based.

Turning to `COc1ccc(C(=O)c2c(C)n(CCN3CCOCC3)c3cc(I)ccc23)cc1`, the inhibition entry in the series on Mus musculus [1] and with Mus musculus [2] was “inactive” in each case.
Regarding `Cc1c(C(=O)c2cccc3ccccc23)c2cccc3c2n1[C@H](CN1CCOCC1)CO3` [WIN-552122], the Activity result in series [3], in series [4], in series [5] and in series [7] was “Toxic” each time. The inhibition entry with Mus musculus [6] was “Active”.
